Series [1] has as its target T1, human amylin receptor (amylin 3(a) receptor: human calcitonin receptor + RAMP-3) (Homo sapiens, UniProt O60896+P30988).
T1 construct: expressed in transfected cells; host or cells: BHK570
T1 sequence (P30988 25-474): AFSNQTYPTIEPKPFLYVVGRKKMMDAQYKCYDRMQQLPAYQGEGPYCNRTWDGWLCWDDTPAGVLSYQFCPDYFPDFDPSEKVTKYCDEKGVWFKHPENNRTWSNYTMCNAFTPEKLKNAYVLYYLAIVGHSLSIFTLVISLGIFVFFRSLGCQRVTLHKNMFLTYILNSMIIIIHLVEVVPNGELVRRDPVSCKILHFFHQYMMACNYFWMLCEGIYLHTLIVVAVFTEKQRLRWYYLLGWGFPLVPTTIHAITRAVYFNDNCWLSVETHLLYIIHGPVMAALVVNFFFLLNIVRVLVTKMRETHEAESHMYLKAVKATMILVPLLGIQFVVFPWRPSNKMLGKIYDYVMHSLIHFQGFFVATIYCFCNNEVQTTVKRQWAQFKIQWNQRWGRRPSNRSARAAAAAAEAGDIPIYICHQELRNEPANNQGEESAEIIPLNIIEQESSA
T1 sequence (O60896 24-148 partner): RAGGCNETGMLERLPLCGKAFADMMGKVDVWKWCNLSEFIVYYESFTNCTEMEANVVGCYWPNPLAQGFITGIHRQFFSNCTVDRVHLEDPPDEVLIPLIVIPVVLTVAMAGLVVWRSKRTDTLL
The series is described as follows: Assay (II)a functional CRE-luciferase assay, human amylin receptor. The format is cell-based. The note with it: Table 2; BHK amylin 3(a)-receptor/CRE-luc cells.

Series [2] deals with T2, human calcitonin receptor (Homo sapiens, UniProt P30988).
T2 construct: expressed in transfected cells; host or cells: BHK570
T2 sequence (P30988 25-474): T1 sequence (P30988 25-474)
Kind of series: Assay (II)a functional CRE-luciferase assay, human calcitonin receptor. The note with it: Table 7; human calcitonin (CTa) receptor. The class given is cell-based.

Series [3] is described as follows: Assay (III) ThT fibrillation assay for physical stability. The format is physicochemical. The following applies: ThT fibrillation assay. The gist of the method:
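Freshly prepared formulations, pH-adjusted, with 1 μM ThT; four or eight replicates incubated at 37 °C under 960 rpm orbital shaking. Fluorescence (ex 444/em 485 nm) read every 20 min; […]. Peptide concentration measured by RP-HPLC before and after the run.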

Series [4] is described as follows: Assay (IV) determination of solubility. The format is physicochemical. In a few lines:
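Polypeptide in water (~500 nmol/ml stock) was mixed 1:1 with 100 mM buffers from pH 3.0 to 8.0 (glycylglycine pH 3.0–5.0; bistrispropane pH 6.0–8.0). After 18 hours at room temperature, samples were centrifuged and the polypeptide remaining in solution was quantified by HPLC.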

The mark [5] stands for this setting: bistrispropane buffer, pH 6, pH 6.0, read-out: Solubility pH 6.0.
[6] abbreviates: bistrispropane buffer, pH 6.5, pH 6.5, read-out: Solubility pH 6.5.
Setting [7] is: bistrispropane buffer, pH 7.5, pH 7.5, read-out: Solubility pH 7.5.
[8] abbreviates: bistrispropane buffer, pH 8, pH 8.0, read-out: Solubility pH 8.0.
[9] abbreviates: glycylglycine buffer, pH 3, pH 3.0, read-out: Solubility pH 3.0.
Where [10] appears, read: glycylglycine buffer, pH 4, pH 4.0, 18 hours at room temperature, Table 2, read-out: Solubility pH 4.0.
[11] abbreviates: glycylglycine buffer, pH 4, pH 4.0, read-out: Solubility pH 4.0.
[12] abbreviates: glycylglycine buffer, pH 5, pH 5.0, read-out: Solubility pH 5.0.
[13] abbreviates: bistrispropane buffer, pH 7, pH 7.0, read-out: Solubility pH 7.0.

SMILES strings stand for the structures. Values after ≈ are worked out from the molar mass of the structure shown. Like-named read-outs stand apart in the source and are kept apart here. Starred links: 1 amine or outer side, 2 acyl side, 3 side chain; linkers in the order of their positions; H or OH if unused. Positions of bridges follow the written chain, without caps; N, C: chain ends. Residues, ends and D or L forms follow the SMILES beside them. *: point of attachment. C20 diacid = O=C(O)CCCCCCCCCCCCCCCCCCC(=O)*; γGlu = O=C(O)[C@H](CCC(=O)[*:2])N[*:1]

As usually defined, the EC50 is the concentration needed to bring the measured effect to its halfway point. Usually solubility stands for the dissolved amount per volume that the medium holds.

For the molecule `CC[C@H](C)[C@H](NC(=O)[C@@H]1CCCN1C(=O)CNC(=O)[C@H](Cc1ccccc1)NC(=O)[C@H](CC(N)=O)NC(=O)[C@H](CC(N)=O)NC(=O)[C@H](CO)NC(=O)[C@H](CO)NC(=O)[C@H](Cc1c[nH]cn1)NC(=O)[C@H](Cc1c[nH]cn1)NC(=O)[C@H](CC(C)C)NC(=O)[C@H](Cc1ccccc1)NC(=O)[C@H](CCC(=O)O)NC(=O)[C@H](C)NC(=O)[C@H](CC(C)C)NC(=O)[C@H](CCCNC(=N)N)NC(=O)[C@H](CCC(N)=O)NC(=O)[C@@H](NC(=O)[C@H](C)NC(=O)[C@@H]1CSSC[C@H](NC(=O)[C@H](Cc2c[nH]cn2)NC(=O)[C@H](Cc2c[nH]cn2)NC(=O)[C@H](Cc2c[nH]cn2)NC(=O)CC[C@H](NC(=O)CCCCCCCCCCCCCCCCCCC(=O)O)C(=O)O)C(=O)N[C@@H](CC(N)=O)C(=O)N[C@@H]([C@@H](C)O)C(=O)N[C@@H](C)C(=O)N[C@@H]([C@@H](C)O)C(=O)N1)[C@@H](C)O)C(=O)N[C@@H](CC(C)C)C(=O)N1CCC[C@H]1C(=O)N[C@@H](Cc1c[nH]cn1)C(=O)N[C@H](C(=O)N[C@@H](CC(N)=O)C(=O)N[C@H](C(=O)NCC(=O)N[C@@H](CO)C(=O)N[C@@H](CC(N)=O)C(=O)N[C@H](C(=O)N[C@@H](Cc1ccc(O)cc1)C(N)=O)[C@@H](C)O)C(C)C)[C@@H](C)O` [Example 36, N-alpha-[(S)-4-Carboxy-4-(19-carboxynonadecanoylamino)butyryl]-His-His-[His1,Glu14,His17,His29]-pramlintide] ({C20 diacid-γGlu}-HHHCNTATCATQRLAEFLHHSSNNFGPILPHTNVGSNTY-NH2; disulfide 4-9 (inferred)), the EC50 in series [1] stood at 0.167 nM; in series [2], 0.191 nM. Besides, the “ThT pH 4.0 lag time (h)” value in series [3] is on record as 1.3 h. In addition, the solubility at 18 h in series [4] (setting [5]) is over 200 µM; in series [4] (setting [6]), 14 µM (≈ 66.9 µg/mL); in series [4] (setting [7]), 2 µM (≈ 9.56 µg/mL); in series [4] (setting [8]), 60 µM (≈ 287 µg/mL); in series [4] (setting [9]), over 200 µM; in series [4] (setting [10]), over 200 µM. In addition, the solubility at 18 h in series [4] (setting [11]) and in series [4] (setting [12]) was over 200 µM in each case.

As for `CC[C@H](C)[C@H](NC(=O)[C@@H]1CCCN1C(=O)CNC(=O)[C@H](Cc1ccccc1)NC(=O)[C@H](CC(N)=O)NC(=O)[C@H](CC(N)=O)NC(=O)[C@H](CO)NC(=O)[C@H](CO)NC(=O)[C@H](Cc1c[nH]cn1)NC(=O)[C@H](Cc1c[nH]cn1)NC(=O)[C@H](CC(C)C)NC(=O)[C@H](Cc1ccccc1)NC(=O)[C@H](CCC(=O)O)NC(=O)[C@H](C)NC(=O)[C@H](CC(C)C)NC(=O)[C@H](CCCNC(=N)N)NC(=O)[C@H](CCC(N)=O)NC(=O)[C@@H](NC(=O)[C@H](C)NC(=O)[C@@H]1CSSC[C@H](NC(=O)[C@H](Cc2c[nH]cn2)NC(=O)[C@H](CCC(=O)O)NC(=O)CC[C@H](NC(=O)CCCCCCCCCCCCCCCCCCC(=O)O)C(=O)O)C(=O)N[C@@H](CC(N)=O)C(=O)N[C@@H]([C@@H](C)O)C(=O)N[C@@H](C)C(=O)N[C@@H]([C@@H](C)O)C(=O)N1)[C@@H](C)O)C(=O)N[C@@H](CC(C)C)C(=O)N1CCC[C@H]1C(=O)N1CCC[C@H]1C(=O)N[C@H](C(=O)N[C@@H](CC(N)=O)C(=O)N[C@H](C(=O)NCC(=O)N[C@@H](CO)C(=O)N[C@@H](CC(N)=O)C(=O)N[C@H](C(=O)N[C@@H](Cc1ccc(O)cc1)C(N)=O)[C@@H](C)O)C(C)C)[C@@H](C)O` [Example 40, N-alpha-[(S)-4-Carboxy-4-(19-carboxynonadecanoylamino)butyryl]-Glu-[His1,Glu14,His17]-pramlintide] ({C20 diacid-γGlu}-EHCNTATCATQRLAEFLHHSSNNFGPILPPTNVGSNTY-NH2; disulfide 3-8 (inferred); C-terminus assumed), the results for the EC50 in series [1] and in series [2] were 0.248 nM and 0.439 nM, respectively. Also, the “ThT pH 4.0 lag time (h)” value in series [3] turned out to be 7 h. In addition, the solubility at 18 h is over 200 µM in series [4] (setting [5]); over 200 µM in series [4] (setting [6]); over 200 µM in series [4] (bistrispropane buffer, pH 7, pH 7.0, 18 hours at room temperature, Table 3, read-out: Solubility pH 7.0); over 200 µM in series [4] (setting [13]); over 200 µM in series [4] (setting [7]); over 200 µM in series [4] (setting [8]). Besides, the solubility at 18 h in series [4] (setting [9]), in series [4] (setting [10]), in series [4] (setting [11]) and in series [4] (setting [12]) was over 200 µM in each case.

For `CC[C@H](C)[C@H](NC(=O)[C@@H]1CCCN1C(=O)CNC(=O)[C@H](Cc1ccccc1)NC(=O)[C@H](CC(N)=O)NC(=O)[C@H](CC(N)=O)NC(=O)[C@H](CO)NC(=O)[C@H](CO)NC(=O)[C@H](Cc1c[nH]cn1)NC(=O)[C@H](Cc1c[nH]cn1)NC(=O)[C@H](CC(C)C)NC(=O)[C@H](Cc1ccccc1)NC(=O)[C@H](CCC(=O)O)NC(=O)[C@H](C)NC(=O)[C@H](CC(C)C)NC(=O)[C@H](CCCNC(=N)N)NC(=O)[C@H](CCC(N)=O)NC(=O)[C@@H](NC(=O)[C@H](C)NC(=O)[C@@H]1CSSC[C@H](NC(=O)[C@H](CCCCN)NC(=O)[C@H](CCC(=O)O)NC(=O)[C@H](CCC(=O)O)NC(=O)CC[C@H](NC(=O)CCCCCCCCCCCCCCCCCCC(=O)O)C(=O)O)C(=O)N[C@@H](CC(N)=O)C(=O)N[C@@H]([C@@H](C)O)C(=O)N[C@@H](C)C(=O)N[C@@H]([C@@H](C)O)C(=O)N1)[C@@H](C)O)C(=O)N[C@@H](CC(C)C)C(=O)N1CCC[C@H]1C(=O)N1CCC[C@H]1C(=O)N[C@H](C(=O)N[C@@H](CC(N)=O)C(=O)N[C@H](C(=O)NCC(=O)N[C@@H](CO)C(=O)N[C@@H](CC(N)=O)C(=O)N[C@H](C(=O)N[C@@H](Cc1ccc(O)cc1)C(N)=O)[C@@H](C)O)C(C)C)[C@@H](C)O` [Example 41, N-alpha-[(S)-4-Carboxy-4-(19-carboxynonadecanoylamino)butyryl]-Glu-Glu-[Glu14,His17]-pramlintide] ({C20 diacid-γGlu}-EEKCNTATCATQRLAEFLHHSSNNFGPILPPTNVGSNTY-NH2; disulfide 4-9 (inferred)), the EC50 amounted to 0.402 nM in series [1] and 0.798 nM in series [2]. In addition, the “ThT pH 4.0 lag time (h)” value in series [3] was found to be 0 h. In addition, the solubility at 18 h in series [4] (setting [5]) is 1 µM (≈ 4.71 µg/mL); in series [4] (setting [6]), 1 µM (≈ 4.71 µg/mL); in series [4] (setting [13]), 1 µM (≈ 4.71 µg/mL); in series [4] (setting [7]), 1 µM (≈ 4.71 µg/mL); in series [4] (setting [8]), 4 µM (≈ 18.9 µg/mL); in series [4] (setting [9]), over 200 µM. In addition, the values for the solubility at 18 h in series [4] (setting [10]), in series [4] (setting [11]) and in series [4] (setting [12]) were 118 µM (≈ 556 µg/mL), 118 µM (≈ 556 µg/mL) and 1 µM (≈ 4.71 µg/mL), respectively.

The values are drawn from patent publication US8722849B2, “Polypeptides” (Novo Nordisk A/S, priority 2011, dated 2014).
